Assay [1] can be described thus: Cytotoxicity against human MKN45 cells after 72 hrs by MTT assay. As to conditions: MKN-45, 72 h.
Assay [2] has as its target Platelet-derived growth factor receptor alpha (Homo sapiens, UniProt P16234). Put plainly: Inhibition of PDGFRalpha (unknown origin) after 30 mins using poly (Glu,Tyr)4:1 substrate.
Assay [3] concerns the target T1, Receptor-type tyrosine-protein kinase FLT3 (Homo sapiens, UniProt P36888).
T1 sequence (P36888 whole entry): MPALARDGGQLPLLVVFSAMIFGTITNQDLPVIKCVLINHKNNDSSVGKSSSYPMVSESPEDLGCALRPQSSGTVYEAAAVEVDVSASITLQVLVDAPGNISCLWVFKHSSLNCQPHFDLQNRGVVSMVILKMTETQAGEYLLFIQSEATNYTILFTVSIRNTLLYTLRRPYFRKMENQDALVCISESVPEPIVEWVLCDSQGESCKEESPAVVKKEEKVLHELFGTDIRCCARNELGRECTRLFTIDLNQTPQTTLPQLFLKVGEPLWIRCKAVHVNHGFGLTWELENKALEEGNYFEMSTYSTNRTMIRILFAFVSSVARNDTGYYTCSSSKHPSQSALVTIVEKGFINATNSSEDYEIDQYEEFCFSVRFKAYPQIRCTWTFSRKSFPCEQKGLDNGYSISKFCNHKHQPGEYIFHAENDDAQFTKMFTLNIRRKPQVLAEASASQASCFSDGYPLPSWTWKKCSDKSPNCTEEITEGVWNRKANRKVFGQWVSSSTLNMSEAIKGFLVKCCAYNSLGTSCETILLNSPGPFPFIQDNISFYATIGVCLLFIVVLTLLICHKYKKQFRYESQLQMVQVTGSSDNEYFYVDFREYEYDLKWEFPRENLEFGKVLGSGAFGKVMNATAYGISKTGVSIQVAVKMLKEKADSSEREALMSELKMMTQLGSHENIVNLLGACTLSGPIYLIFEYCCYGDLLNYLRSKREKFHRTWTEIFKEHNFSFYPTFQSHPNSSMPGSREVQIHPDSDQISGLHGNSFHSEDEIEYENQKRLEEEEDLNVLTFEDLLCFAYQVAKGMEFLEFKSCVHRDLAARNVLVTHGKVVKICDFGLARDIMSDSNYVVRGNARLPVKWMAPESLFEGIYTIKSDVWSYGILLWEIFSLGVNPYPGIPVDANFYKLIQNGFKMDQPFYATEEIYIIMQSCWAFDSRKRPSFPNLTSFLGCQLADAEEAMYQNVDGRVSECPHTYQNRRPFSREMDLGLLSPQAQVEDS
Nature of the assay: Inhibition of FLT3 (unknown origin) after 30 mins using poly (Glu,Tyr)4:1 substrate.

The subject of assay [4] is HT-29. Nature of the assay: Cytotoxicity against human HT-29 cells after 72 hrs by MTT assay. The following applies: HT-29, 72 h. For orientation: Formazan colour is commonly taken as a measure of viable cells.
Assay [5] concerns MDA-MB-231. Nature of the assay: cells. As to conditions: Homo sapiens, MDA-MB-231, 72 h.
Description: Cytotoxicity against human MDA-MB-231 cells after 72 hrs by MTT assay
The target of assay [6] is Hepatocyte growth factor receptor (Homo sapiens, UniProt P08581). Put plainly: Inhibition of c-Met (unknown origin) after 30 mins using poly (Glu,Tyr)4:1 substrate.
Chain of Hepatocyte growth factor receptor (P08581 whole entry): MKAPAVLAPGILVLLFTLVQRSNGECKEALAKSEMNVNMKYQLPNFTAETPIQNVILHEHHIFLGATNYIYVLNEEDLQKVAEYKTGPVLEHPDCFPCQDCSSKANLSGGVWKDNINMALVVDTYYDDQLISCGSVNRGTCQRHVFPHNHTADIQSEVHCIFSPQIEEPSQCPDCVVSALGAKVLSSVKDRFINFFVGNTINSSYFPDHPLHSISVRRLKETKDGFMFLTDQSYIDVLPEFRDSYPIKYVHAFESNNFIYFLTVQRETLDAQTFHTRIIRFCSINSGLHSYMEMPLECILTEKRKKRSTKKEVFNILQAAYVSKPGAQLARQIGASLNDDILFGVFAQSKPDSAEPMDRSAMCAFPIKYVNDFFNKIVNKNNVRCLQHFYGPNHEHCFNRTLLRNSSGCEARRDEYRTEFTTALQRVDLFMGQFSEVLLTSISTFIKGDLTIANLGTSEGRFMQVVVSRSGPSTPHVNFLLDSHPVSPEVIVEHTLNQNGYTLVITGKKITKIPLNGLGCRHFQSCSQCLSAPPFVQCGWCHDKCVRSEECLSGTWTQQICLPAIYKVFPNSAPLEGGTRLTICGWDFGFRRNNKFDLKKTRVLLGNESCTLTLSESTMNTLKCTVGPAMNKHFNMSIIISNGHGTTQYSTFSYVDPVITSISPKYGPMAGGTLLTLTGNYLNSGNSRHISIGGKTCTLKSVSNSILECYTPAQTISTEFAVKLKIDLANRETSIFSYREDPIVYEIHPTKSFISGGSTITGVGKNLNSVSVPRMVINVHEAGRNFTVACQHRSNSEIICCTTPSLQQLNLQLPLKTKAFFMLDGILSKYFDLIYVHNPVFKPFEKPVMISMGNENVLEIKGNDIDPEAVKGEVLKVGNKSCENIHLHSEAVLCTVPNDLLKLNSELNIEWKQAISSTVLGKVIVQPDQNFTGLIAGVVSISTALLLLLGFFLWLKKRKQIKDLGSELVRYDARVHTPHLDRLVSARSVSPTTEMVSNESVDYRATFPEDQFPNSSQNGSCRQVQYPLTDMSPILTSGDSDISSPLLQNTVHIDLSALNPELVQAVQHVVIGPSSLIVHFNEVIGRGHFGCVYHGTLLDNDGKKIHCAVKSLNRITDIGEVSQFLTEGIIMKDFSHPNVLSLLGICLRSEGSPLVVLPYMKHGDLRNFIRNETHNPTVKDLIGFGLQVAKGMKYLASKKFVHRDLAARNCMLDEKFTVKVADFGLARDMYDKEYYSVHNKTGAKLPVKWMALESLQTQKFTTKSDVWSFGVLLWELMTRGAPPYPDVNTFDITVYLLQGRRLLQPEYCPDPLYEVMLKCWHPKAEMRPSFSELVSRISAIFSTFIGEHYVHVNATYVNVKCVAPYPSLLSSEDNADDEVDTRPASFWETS
Assay [7] deals with Epidermal growth factor receptor (Homo sapiens, UniProt P00533). Put plainly: Inhibition of EGFR (unknown origin) after 30 mins using poly (Glu,Tyr)4:1 substrate.
Chain of Epidermal growth factor receptor (P00533 whole entry): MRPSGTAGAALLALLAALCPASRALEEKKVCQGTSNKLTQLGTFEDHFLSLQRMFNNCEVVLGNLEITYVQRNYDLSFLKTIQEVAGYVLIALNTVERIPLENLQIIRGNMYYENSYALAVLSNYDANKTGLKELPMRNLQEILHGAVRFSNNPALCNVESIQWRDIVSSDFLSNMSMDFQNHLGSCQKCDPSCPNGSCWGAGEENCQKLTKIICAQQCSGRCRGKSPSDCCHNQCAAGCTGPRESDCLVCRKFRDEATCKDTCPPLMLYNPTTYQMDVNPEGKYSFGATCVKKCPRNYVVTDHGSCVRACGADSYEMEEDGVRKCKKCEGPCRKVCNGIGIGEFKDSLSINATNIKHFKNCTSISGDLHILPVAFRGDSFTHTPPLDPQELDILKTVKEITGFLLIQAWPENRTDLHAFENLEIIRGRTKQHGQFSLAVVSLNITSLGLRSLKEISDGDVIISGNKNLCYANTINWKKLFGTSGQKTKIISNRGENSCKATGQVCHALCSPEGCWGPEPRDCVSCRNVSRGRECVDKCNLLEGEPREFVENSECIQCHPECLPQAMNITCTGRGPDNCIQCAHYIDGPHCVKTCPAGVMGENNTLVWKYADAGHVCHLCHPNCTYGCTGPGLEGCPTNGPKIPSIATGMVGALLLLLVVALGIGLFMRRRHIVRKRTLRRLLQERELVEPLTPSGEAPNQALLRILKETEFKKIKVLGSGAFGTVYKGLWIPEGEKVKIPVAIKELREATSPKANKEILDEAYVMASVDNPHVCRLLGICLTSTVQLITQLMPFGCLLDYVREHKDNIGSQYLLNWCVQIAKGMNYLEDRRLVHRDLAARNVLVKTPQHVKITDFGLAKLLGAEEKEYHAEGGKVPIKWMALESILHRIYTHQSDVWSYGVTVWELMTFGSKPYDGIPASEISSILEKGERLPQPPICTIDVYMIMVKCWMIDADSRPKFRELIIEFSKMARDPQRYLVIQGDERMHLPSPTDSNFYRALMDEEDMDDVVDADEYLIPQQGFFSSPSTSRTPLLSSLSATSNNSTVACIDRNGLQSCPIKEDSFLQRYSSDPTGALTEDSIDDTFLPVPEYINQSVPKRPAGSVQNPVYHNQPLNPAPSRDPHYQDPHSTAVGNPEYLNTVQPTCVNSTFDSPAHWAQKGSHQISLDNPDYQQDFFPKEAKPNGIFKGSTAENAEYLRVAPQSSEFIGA
Assay [8] deals with Vascular endothelial growth factor receptor 2 (Homo sapiens, UniProt P35968). Nature of the assay: Inhibition of VEGFR2 (unknown origin) after 30 mins using poly (Glu,Tyr)4:1 substrate.
Chain of Vascular endothelial growth factor receptor 2 (P35968 whole entry): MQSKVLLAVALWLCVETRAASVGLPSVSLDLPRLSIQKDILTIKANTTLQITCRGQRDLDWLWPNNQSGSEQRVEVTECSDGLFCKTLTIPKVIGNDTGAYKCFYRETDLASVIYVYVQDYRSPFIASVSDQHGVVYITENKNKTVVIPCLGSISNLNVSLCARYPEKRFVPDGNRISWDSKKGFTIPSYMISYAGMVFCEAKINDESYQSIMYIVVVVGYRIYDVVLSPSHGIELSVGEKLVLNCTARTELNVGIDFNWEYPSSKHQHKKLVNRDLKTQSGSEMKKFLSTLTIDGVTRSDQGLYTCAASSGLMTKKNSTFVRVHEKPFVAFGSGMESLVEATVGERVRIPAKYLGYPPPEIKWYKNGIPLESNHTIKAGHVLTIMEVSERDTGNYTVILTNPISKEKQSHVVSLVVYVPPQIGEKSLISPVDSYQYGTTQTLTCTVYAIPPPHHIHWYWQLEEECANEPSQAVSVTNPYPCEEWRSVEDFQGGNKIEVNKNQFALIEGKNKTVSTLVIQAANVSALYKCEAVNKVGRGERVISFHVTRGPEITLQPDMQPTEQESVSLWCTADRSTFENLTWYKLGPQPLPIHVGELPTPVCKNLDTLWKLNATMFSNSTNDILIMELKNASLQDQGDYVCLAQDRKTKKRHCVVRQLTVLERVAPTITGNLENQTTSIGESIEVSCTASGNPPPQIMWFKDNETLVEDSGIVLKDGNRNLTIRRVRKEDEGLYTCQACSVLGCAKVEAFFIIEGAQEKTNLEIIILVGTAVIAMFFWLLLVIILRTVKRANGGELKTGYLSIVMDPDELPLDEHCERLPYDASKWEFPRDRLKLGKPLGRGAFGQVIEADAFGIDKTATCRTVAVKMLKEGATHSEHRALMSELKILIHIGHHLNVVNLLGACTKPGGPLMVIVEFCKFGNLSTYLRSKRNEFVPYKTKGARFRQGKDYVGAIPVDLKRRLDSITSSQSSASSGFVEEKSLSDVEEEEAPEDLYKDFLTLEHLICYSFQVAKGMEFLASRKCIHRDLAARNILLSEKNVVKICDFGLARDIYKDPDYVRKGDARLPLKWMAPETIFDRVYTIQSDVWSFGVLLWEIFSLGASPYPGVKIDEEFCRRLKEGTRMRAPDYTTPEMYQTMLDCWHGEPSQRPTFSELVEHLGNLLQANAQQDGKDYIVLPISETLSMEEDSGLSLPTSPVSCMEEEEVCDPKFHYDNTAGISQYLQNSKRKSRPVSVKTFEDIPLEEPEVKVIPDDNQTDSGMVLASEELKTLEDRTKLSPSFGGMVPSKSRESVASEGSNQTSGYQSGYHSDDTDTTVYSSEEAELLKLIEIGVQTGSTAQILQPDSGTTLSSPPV
For assay [9], the target named is Mast/stem cell growth factor receptor Kit (Homo sapiens, UniProt P10721). Put plainly: Inhibition of c-KIT (unknown origin) after 30 mins using poly (Glu,Tyr)4:1 substrate.
A short description of assay [10]: Cytotoxicity against human H460 cells after 72 hrs by MTT assay. As to conditions: NCI-H460, 72 h.

The structures appear in SMILES notation. Some results are limits rather than exact numbers.

Chain of Platelet-derived growth factor receptor alpha (P16234 whole entry): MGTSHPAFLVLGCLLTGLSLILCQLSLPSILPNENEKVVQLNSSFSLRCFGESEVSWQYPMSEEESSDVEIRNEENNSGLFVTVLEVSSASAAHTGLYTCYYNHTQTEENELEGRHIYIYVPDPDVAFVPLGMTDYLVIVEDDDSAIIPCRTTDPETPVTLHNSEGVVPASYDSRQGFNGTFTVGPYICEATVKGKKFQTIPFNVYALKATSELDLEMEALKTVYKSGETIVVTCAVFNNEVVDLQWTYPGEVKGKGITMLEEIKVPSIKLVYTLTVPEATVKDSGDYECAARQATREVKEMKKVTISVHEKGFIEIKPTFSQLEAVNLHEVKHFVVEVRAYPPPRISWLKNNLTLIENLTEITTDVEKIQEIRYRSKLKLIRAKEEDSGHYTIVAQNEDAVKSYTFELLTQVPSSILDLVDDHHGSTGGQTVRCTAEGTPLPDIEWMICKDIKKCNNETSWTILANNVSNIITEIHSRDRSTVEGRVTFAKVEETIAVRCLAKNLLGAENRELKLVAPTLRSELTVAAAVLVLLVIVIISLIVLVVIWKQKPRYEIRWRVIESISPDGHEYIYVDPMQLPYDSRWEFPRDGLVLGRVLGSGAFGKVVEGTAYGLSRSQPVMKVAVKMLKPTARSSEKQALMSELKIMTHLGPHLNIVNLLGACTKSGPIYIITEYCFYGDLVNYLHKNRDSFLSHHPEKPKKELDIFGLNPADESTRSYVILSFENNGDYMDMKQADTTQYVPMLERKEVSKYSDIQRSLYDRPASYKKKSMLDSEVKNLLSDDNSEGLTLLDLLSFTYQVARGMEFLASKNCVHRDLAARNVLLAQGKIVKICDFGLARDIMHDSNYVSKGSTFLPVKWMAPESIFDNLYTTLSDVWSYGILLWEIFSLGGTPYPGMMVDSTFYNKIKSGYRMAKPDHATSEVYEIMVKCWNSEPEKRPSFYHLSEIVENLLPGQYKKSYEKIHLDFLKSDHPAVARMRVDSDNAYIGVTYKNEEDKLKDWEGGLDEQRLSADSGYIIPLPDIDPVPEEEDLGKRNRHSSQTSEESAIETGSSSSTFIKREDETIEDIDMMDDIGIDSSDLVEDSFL

For the compound `COc1cc2c(Oc3ccc(NC(=O)c4nn(-c5ccc(F)cc5)c(=O)c5ccccc45)cc3F)ccnc2cc1OCCCN1CCCC1`, the IC50 (as a rule, the midpoint of a concentration-inhibition curve) came to 71 nM in assay [1]; 15.7 nM in [2]; 3.49 nM in assay [3]; 130 nM in assay [4]; 430 nM in [5]; 1.63 nM in assay [6]. In addition, the IC50 in [7] is more than 10000 nM; in assay [8], 70.4 nM; in [9] it was 2.17 nM; in [10], 55 nM.

(Values after ChEMBL document CHEMBL3352619, “Design, synthesis and biological evaluation of novel 6,7-disubstituted-4-phenoxyquinoline derivatives bearing 4-oxo-3,4-dihydrophthalazine-1-carboxamide moieties as c-Met kinase inhibitors” (Bioorg Med Chem, 2014).)
